Source: patent US11260100B2, “Compositions targeting the interaction domain between p27Kip1 and Brk and methods of use thereof to inhibit p27 Y phosphorylation and cdk4 activity” (The Research Foundation for the State University of New York, priority 2014, dated 2022)

Experiments:
[1] = tested on: MCF7 mock, WT, KM and YF cells; experiment: Viability of PD0332991 treated Brk expressing MCF7 lines; type: cell-based, human; details: all concentrations of the drug
From the text: The PCR fragments were ligated to the T7pGEMEX human His-p27 or T7pGEMEX human Flag-p27 plasmid for expression in E. coli. Mutants Y74F, Y88F, and Y88/89F were previously described (12). Flag-tagged p27 mutants were purified by Flag-immunoprecipitation with Flag antibody (M-2, Sigma F-18C9) and eluted with Flag peptide (Sigma F-4799) according to manufacturer's protocol. His-tagged p27 mutants were purified by FPLC via his-trap affinity chromatography (His-Trap HP, GE Healthcare 71-5247-01). The affinity column was stripped according to manufacturer's protocol, then washed with 5 column volumes of 100 mM CoCl2. The crude material was applied with a loading buffer consisting of 6 M urea, 500 mM NaCl, 50 mM Tris-HCl, pH 7.5 and 20% glycerol. The material was washed with 500 mM NaCl, 50 mM Tris-HCl, pH 7.5 and 10% glycerol. The purified material was eluted with 500 mM imidazole,20 mM Hepes pH 7.4 and 1 M KCl. The protein was then dialyzed overnight in a solution of 25 mM Hepes pH 7.7, 150 mM NaCl, 5 mM MgCl2 and 0.05% NP40. All purified proteins were analyzed by Coomassie and immunoblot analysis. […] Cells were counted using the automated cell counter (BioRad TC-20).Viability was measured by Trypan Blue staining and counted using the cell counter. • Immunoprecipitation. […]

[2] = tested on: MCF7 WT Brk expressing cells; experiment: PI staining and FACS analysis, % G1 content; type: cell-based, human; details: PD0332991 up to 100 nM
Method: Immunoprecipitation with IgG served as a negative control (FIG. 6C). DNA with Hoechst stain is in blue and is merged with red and green staining (FIG. 6D). (FIG. 6E) Cdk4 was immunoprecipitated from the lysates and recombinant Rb was added to perform an in vitro kinase assay in the presence of ATP Immunoblot analysis was performed to probe for Rb, Ser780 pRb and cdk4 Immunoprecipitation with IgG served as a negative control. (FIG. 6F) Cells were treated with different concentrations of PD0332291 or DMSO as a control at Day 2. Total cell numbers were analyzed by counting 24 and 48 hours post treatment to determine IC50 values. (FIG. 6G) Cells were treated with different concentration of PD032291 or DMSO and analyzed by PI staining and FACS analysis. % G1 content is plotted.
The PCR fragments were ligated to the T7pGEMEX human His-p27 or T7pGEMEX human Flag-p27 plasmid for expression in E. coli. Mutants Y74F, Y88F, and Y88/89F were previously described (12). Flag-tagged p27 mutants were purified by Flag-immunoprecipitation with Flag antibody (M-2, Sigma F-18C9) and eluted with Flag peptide (Sigma F-4799) according to manufacturer's protocol. His-tagged p27 mutants were purified by FPLC via his-trap affinity chromatography (His-Trap HP, GE Healthcare 71-5247-01). The affinity column was stripped according to manufacturer's protocol, then washed with 5 column volumes of 100 mM CoCl2. […]

MCF7 (ER/PR+, Her2-) = experiment: Palbociclib sensitivity of breast cancer line; type: cell-based; details: Homo sapiens; MCF7, high responder

## CC(=O)c1c(C)c2cnc(Nc3ccc(N4CCNCC4)cn3)nc2n(C2CCCC2)c1=O [PD0332991]
[1]
  viability: unchanged
[2]
  G1 content: approximately 55%
MCF7 (ER/PR+, Her2-)
  IC50: 200 nM
